Experimental data from patent publication US20240043435A1, “TYK-2 INHIBITOR” (BEIGENE, LTD., priority 2020, published 2024).

Assays:
[1] = system: JAK2, TYK2/p-STAT4 (Tyr693) activated by IL-12 in NK-92 cell line; assay: IL-12-JAK2, TYK2/p-STAT4 (Tyr693) inhibition IC50 cellular assay; assay type: cell-based; conditions: for Selectivity fold (TYK2/JAK2): Cellular assay, pSTAT5/GM-CSF IC50 vs pSTAT4/IL-12 IC50; for IC50: NK92, Cellular assay, read-out: pSTAT4/IL-12 IC50
Outline: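 p-STAT4 (Tyr693) in lysates was measured by AlphaLISA SureFire Ultra after a 30 min IL-12 challenge (40 ng/ml final) at 37° C. Overnight-starved, IL-2-free NK-92 cells had been pretreated 1 h with compound at 10000 to 0.61 nM (4-fold, 8 points). IC50 values came from four-parameter logistic fitting.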

[2] = biological target: T1, TYK2-JH2 (aa 575-869, in-house) protein (Homo sapiens, UniProt P29597); assay: TYK2-JH2 biochemical assay (HTRF probe displacement); assay type: binding; conditions: Biochemical assay; read-out: TYK2-JH2 IC50
T1 construct: TYK2-JH2 (aa 575-869, in-house) protein; made in house
Outline: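 HTRF probe-displacement format: compound dilutions (10 points, 5-fold, from 500 uM in DMSO at 500×) were combined with 0.2 nM TYK2-JH2 protein for 0.5 h at room temperature in HEPES pH 7.5 buffer with MgCl2, BSA, DTT and Brij-35. Percent inhibition came from the 615/665 nm fluorescence ratio, fitted to a four-parameter logistic for IC50.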

[3] = system: pSTAT5/GM-CSF; assay: pSTAT5/GM-CSF cellular assay (JAK2 selectivity); assay type: cell-based

T1 sequence (P29597 575-869): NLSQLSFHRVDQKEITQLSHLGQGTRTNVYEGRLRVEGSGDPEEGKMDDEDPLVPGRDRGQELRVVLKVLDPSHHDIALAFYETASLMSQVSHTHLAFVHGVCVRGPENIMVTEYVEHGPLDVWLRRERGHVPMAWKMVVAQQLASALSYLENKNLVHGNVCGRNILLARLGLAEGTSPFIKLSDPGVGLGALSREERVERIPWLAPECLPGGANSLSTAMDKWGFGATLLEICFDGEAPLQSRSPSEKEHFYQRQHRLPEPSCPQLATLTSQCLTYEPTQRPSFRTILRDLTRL

Row | IC50 [1] | IC50 [2] | IC50 [3] | Structure (SMILES) | Selectivity fold (TYK2/JAK2) [1]
1 | 0.536 nM | 0.022 nM | > 10000 nM | COCc1ccc(-c2cnc(NC(C)=O)cc2Nc2cc(OC(C)C)cc(S(C)(=O)=O)n2)nc1 [Example E4, N-(4′-((4-isopropoxy-6-(methylsulfonyl)pyridin-2-yl)amino)-5-(methoxymethyl)-[2,3′-bipyridin]-6′-yl)acetamide] | >18656 fold
2 | 0.501 nM | 0.022 nM | > 10000 nM | COCCOc1cc(Nc2cc(NC(C)=O)ncc2-c2ccc(COC)cn2)nc(S(C)(=O)=O)c1 [Example E5, N-(4′-((4-(2-methoxyethoxy)-6-(methylsulfonyl)pyridin-2-yl)amino)-5-(methoxymethyl)-[2,3′-bipyridin]-6′-yl)acetamide] | >19960 fold
3 | 2.72 nM | 0.029 nM | > 10000 nM | COCc1ccc(-c2cnc(NC(C)=O)cc2Nc2cc(OCCO)cc(S(C)(=O)=O)n2)nc1 [Example E6, N-(4′-((4-(2-hydroxyethoxy)-6-(methylsulfonyl)pyridin-2-yl)amino)-5-(methoxymethyl)-[2,3′-bipyridin]-6′-yl)acetamide] | >3676 fold
4 | 0.447 nM | 0.02 nM | > 10000 nM | COCc1ccc(-c2cnc(NC(C)=O)cc2Nc2cc(OC)cc(S(C)(=O)=O)n2)nc1 [Example E7, N-(4′-((4-methoxy-6-(methylsulfonyl)pyridin-2-yl)amino)-5-(methoxymethyl)-[2,3′-bipyridin]-6′-yl)acetamide] | >22371 fold
5 | 0.504 nM | 0.022 nM | > 10000 nM | COCc1ccc(-c2cnc(NC(C)=O)cc2Nc2cc(COC)cc(S(C)(=O)=O)n2)nc1 [Example E9, N-(5-(methoxymethyl)-4′-((4-(methoxymethyl)-6-(methylsulfonyl)pyridin-2-yl)amino)-[2,3′-bipyridin]-6′-yl)acetamide] | >19960 fold
6 | 1.23 nM | 0.046 nM | > 10000 nM | CC(=O)Nc1cc(Nc2cc(C)cc(S(C)(=O)=O)n2)c(-c2ccc(C(F)(F)F)cn2)cn1 [Example F1, N-(4′-((4-methyl-6-(methylsulfonyl)pyridin-2-yl)amino)-5-(trifluoromethyl)-[2,3′-bipyridin]-6′-yl)acetamide] | >8130 fold
7 | 22.1 nM | 0.051 nM | > 10000 nM | CC(=O)Nc1cc(Nc2cccc(S(C)(=O)=O)c2)c(-c2ccc(C(F)(F)F)cn2)cn1 [Example F2, N-(4′-((3-(methylsulfonyl)phenyl)amino)-5-(trifluoromethyl)-[2,3′-bipyridin]-6′-yl)acetamide] | >451 fold
8 | 5.45 nM | 0.06 nM | > 10000 nM | CC(=O)Nc1cc(Nc2cc(OC(C)C)cc(S(C)(=O)=O)n2)c(-c2ccc(C(F)(F)F)cn2)cn1 [Example F9, N-(4′-((4-isopropoxy-6-(methylsulfonyl)pyridin-2-yl)amino)-5-(trifluoromethyl)-[2,3′-bipyridin]-6′-yl)acetamide] | > 1834 fold
9 | 0.705 nM | 0.037 nM | > 10000 nM | COCCOc1cc(Nc2cc(NC(C)=O)ncc2-c2ccc(C(F)(F)F)cn2)nc(S(C)(=O)=O)c1 [Example F11, N-(4′-((4-(2-methoxyethoxy)-6-(methylsulfonyl)pyridin-2-yl)amino)-5-(trifluoromethyl)-[2,3′-bipyridin]-6′-yl)acetamidecarboxamide] | >14184 fold
10 | 1.35 nM | 0.034 nM | > 10000 nM | CC(=O)Nc1cc(Nc2cc(OCCO)cc(S(C)(=O)=O)n2)c(-c2ccc(C(F)(F)F)cn2)cn1 [Example F12, N-(4′-((4-(2-hydroxyethoxy)-6-(methylsulfonyl)pyridin-2-yl)amino)-5-(trifluoromethyl)-[2,3′-bipyridin]-6′-yl)acetamide] | >7407 fold
11 | 1.25 nM | 0.054 nM | > 10000 nM | CC(=O)Nc1cc(Nc2cc(C)cc(S(C)(=O)=O)n2)c(-c2ccc(F)cn2)cn1 [Example F17, N-(5-fluoro-4′-((4-methyl-6-(methylsulfonyl)pyridin-2-yl)amino)-[2,3′-bipyridin]-6′-yl)acetamide] | >8000 fold
12 | 3.06 nM | 0.036 nM | > 10000 nM | CCOc1cc(Nc2cc(NC(C)=O)ncc2-c2ccc(F)cn2)nc(S(C)(=O)=O)c1 [Example F19, N-(4′-((4-ethoxy-6-(methylsulfonyl)pyridin-2-yl)amino)-5-fluoro-[2,3′-bipyridin]-6′-yl)acetamide] | >3267 fold
13 | 1.45 nM | 0.031 nM | > 10000 nM | COc1cc(Nc2cc(NC(C)=O)ncc2-c2ccc(C(F)(F)F)cn2)nc(S(C)(=O)=O)c1 [Example F20, N-(4′-((4-methoxy-6-(methylsulfonyl)pyridin-2-yl)amino)-5-(trifluoromethyl)-[2,3′-bipyridin]-6′-yl)acetamide] | >6896 fold
14 | 3.54 nM | 0.026 nM | > 10000 nM | CC(=O)Nc1cc(Nc2cc(OC[C@H](C)O)cc(S(C)(=O)=O)n2)c(-c2ccc(C(F)(F)F)cn2)cn1 [Example F21, (S)-N-(4′-((4-(2-hydroxypropoxy)-6-(methylsulfonyl)pyridin-2-yl)amino)-5-(trifluoromethyl)-[2,3′-bipyridin]-6′-yl)acetamide] | >2814 fold
15 | 1.07 nM | 0.02 nM | > 10000 nM | COc1cc(S(C)(=O)=O)nc(Nc2cc(NC(C)=O)ncc2-c2ccc(F)cn2)c1OC [Example F23, N-(4′-((3,4-dimethoxy-6-(methylsulfonyl)pyridin-2-yl)amino)-5-fluoro-[2,3′-bipyridin]-6′-yl)acetamide] | >9345 fold
16 | 0.82 nM | 0.033 nM | > 10000 nM | [2H]C([2H])([2H])Oc1cc(Nc2cc(NC(C)=O)ncc2-c2ccc(F)cn2)nc(S(C)(=O)=O)c1 [Example F24, N-(5-fluoro-4′-((4-(methoxy-d3)-6-(methylsulfonyl)pyridine-2-yl)amino)-[2,3′-bipyridin]-6′-yl)acetamide] | >12195 fold
17 | 0.446 nM | 0.029 nM | > 10000 nM | CC(=O)Nc1cc(Nc2cc(C3CC3)cc(S(C)(=O)=O)n2)c(-c2ccc(F)cn2)cn1 [Example F25, N-(4′-((4-cyclopropyl-6-(methylsulfonyl)pyridin-2-yl)amino)-5-fluoro-[2,3′-bipyridin]-6′-yl)acetamide] | >22421 fold

Row | Structure (SMILES) | IC50 [1] | IC50 [2] | IC50 [3] | Selectivity fold (TYK2/JAK2) [1]
18 | COCc1ccc(-c2cnc(NC(C)=O)cc2Nc2cc(O[C@H]3C[C@H](O)C3)cc(S(C)(=O)=O)n2)nc1 [Example E8, N-(4′-((4-((1r,3r)-3-hydroxycyclobutoxy)-6-(methylsulfonyl)pyridin-2-yl)amino)-5-(methoxymethyl)-[2,3′-bipyridin]-6′-yl)acetamide] | 2.86 nM | 0.034 nM | > 10000 nM | >3496 fold
